Key:
Recombinant rat AR = target: T1, Recombinant rat AR (Rattus norvegicus, UniProt P15207); assay: Competitive steroid binding assay to the androgen receptor with [3H]mibolerone; conditions: for AR-binding Relative affinity: Ki value of DHT set at 100%; for Affinity to AR as compared to DHT and testosterone: orders of magnitude
T1 construct: made in house; host or cells: E. coli
T1 sequence (P15207 1-902): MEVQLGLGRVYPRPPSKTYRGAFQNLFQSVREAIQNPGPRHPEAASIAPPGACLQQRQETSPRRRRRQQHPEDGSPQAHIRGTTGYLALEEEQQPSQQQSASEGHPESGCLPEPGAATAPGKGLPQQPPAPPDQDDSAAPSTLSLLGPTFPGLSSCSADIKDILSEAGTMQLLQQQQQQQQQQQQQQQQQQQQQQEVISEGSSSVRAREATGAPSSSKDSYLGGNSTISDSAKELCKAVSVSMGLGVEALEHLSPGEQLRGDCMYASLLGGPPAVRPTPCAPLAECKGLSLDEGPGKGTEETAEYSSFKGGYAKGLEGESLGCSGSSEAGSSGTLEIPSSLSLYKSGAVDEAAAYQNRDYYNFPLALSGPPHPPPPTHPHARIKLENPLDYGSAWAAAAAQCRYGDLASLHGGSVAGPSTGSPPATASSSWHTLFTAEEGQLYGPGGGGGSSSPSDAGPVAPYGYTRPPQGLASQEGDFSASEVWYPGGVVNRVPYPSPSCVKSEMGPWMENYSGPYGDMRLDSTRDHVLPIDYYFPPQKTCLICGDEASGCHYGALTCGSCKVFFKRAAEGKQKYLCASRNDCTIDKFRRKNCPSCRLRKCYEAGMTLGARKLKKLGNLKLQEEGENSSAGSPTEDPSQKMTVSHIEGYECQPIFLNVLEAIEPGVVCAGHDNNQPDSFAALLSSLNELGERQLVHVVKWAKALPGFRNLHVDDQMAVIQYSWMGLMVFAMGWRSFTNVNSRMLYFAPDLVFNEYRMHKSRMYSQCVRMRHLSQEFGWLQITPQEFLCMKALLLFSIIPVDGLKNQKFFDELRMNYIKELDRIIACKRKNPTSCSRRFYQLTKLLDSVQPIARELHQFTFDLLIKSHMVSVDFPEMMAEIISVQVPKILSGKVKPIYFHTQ
Experimental: Recombinant rat AR was expressed and purified from E. Coli. […] After incubation for 4 h at 4° C., the unbound ligands were removed and the amounts of [^3H]mibolerone bound to the AR was measured. The average amounts of [^3H]mibolerone bound to AR at each concentration of competitor were used to make inhibition curves. IC50 values were subsequently determined by a non-linear, least squares regression analysis.

[1] = tested on: immature male Wistar rats; assay: In vivo androgenicity, seminal vesicle wet weight after oral dosing for 5 days; design: species or system rat; conditions: for Relative potency: DHT as reference (100%); for Increase seminal vesicle wet weight: once daily for 5 days, relative to vehicle treated rats
Experimental: Groups of 5 immature male Wistar rats, weighing 50±2 grams, received either vehicle treatment or were administered 30 or 10 mg/kg/day test substance by oral gavage in a dosing volume of 10 ml per kg for 5 consecutive days. During the experiment, animals were housed in cages of 45×23×15 cm and maintained in a controlled temperature of 22-24° C. and humidity (60-80%) environment with 12 hours light/dark cycles. Food (lab diet, rodent diet, PMI nutrition international) and water intake was ad libitum.
The animals were sacrificed 24 hours after receiving the final dose and the wet weight of the seminal vesicle of each animal was recorded and average wet weight per group was calculated. Increase in average seminal vesicle wet weight relative to the average seminal vesicle wet weight of vehicle treated rats was considered indicative for in vivo androgenicity.

[2] = target: T2, human sex Hormone Binding Globulin (SHBG) (Homo sapiens, UniProt P04278); assay: Competitive steroid-binding assay, displacement of [3H]DHT from human SHBG; conditions: [3H]DHT as labeled ligand, compared to DHT, T or DHEA (FIG. 1)
T2 sequence (P04278 30-402): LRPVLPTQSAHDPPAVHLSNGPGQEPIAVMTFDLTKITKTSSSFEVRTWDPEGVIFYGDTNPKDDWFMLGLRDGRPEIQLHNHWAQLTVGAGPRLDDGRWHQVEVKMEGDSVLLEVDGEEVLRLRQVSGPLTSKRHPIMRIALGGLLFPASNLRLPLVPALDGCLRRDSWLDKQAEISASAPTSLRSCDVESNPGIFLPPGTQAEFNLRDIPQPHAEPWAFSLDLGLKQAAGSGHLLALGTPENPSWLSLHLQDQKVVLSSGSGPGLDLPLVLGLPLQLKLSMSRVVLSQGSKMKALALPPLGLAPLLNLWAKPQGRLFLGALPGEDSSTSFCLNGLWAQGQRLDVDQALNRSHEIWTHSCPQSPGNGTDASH
Experimental: Human SHBG was treated for 30 min at room temperature with a dextran-coated charcoal (DCC) suspension in phosphate buffered saline (PBS) to remove any steroid ligand. After centrifugation (2,000×g for 10 min) to sediment the DCC, the supernatant containing the human SHBG was diluted in PBS to a concentration of 1 nM based on its steroid binding capacity.
Duplicate aliquots (100 μl) of this human SHBG solution were then incubated with an equal volume of [^3H]DHT at 10 nM, together with 100 μl of PBS alone or the same amount of PBS containing increasing concentrations of unlabeled steroid ligands as competitors in polystyrene test tubes. After incubation for 1 h at room temperature the reaction mixtures were placed in an ice bath for a further 15 min. […] The unbound ligands adsorbed to DCC were then removed by centrifugation (2,000×g for 15 min at 4° C.), and the amounts of [^3H]labeled DHT bound to SHBG were counted in 2 ml ACS scintillation cocktail using in liquid scintillation spectrophotometer. The average amounts of [^3H] labeled DHT bound to SHBG at each concentration of competitor (B) were expressed as a percentage of the average amounts of [^3H]labeled DHT bound to SHBG in the absence of competitor (T), and were plotted against the concentration of competitor in each assay tube.

SMILES | Ki (Recombinant rat AR) [nM] | AR-binding Relative affinity (Recombinant rat AR) [%] | Affinity to AR as compared to DHT and testosterone (Recombinant rat AR) | Relative potency ([1]; oral dose 10 mg/kg/day) [%] | Increase seminal vesicle wet weight ([1]; oral dose 10 mg/kg/day) [%] | Relative potency ([1]; oral dose 30 mg/kg/day) [%] | Increase seminal vesicle wet weight ([1]; oral dose 30 mg/kg/day) [%] | Binding to human SHBG [2]
C[C@]12CC[C@H]3[C@@H](CCC4=CC(=O)CC[C@@]43C)[C@@H]1C[C@H](O)[C@@H]2O [16β-hydroxytestosterone, 16β,17β-dihydroxy-4-androsten-3-one] | 814 | 0.12 | 2 to 3 orders of magnitude less affinity | – | – | – | – | –
C[C@]12CC[C@H]3[C@@H](CCC4=CC(=O)CC[C@@]43C)[C@@H]1[C@H](O)C[C@@H]2O [15β-hydroxytestosterone, 15β,17β-dihydroxy-4-androsten-3-one] | 557 | 0.18 | 2 to 3 orders of magnitude less affinity | 400 | 20 | 130 | 35 | do not bind human SHBG
C[C@]12CCC(=O)C[C@@H]1CC[C@@H]1[C@@H]2CC[C@]2(C)[C@@H](O)CC[C@@H]12 [5α-dihydroxytestosterone, DHT, reference compound] | – | – | – | – | 5 | – | 27 | –
C[C@]12CC[C@H]3[C@@H](CCC4=CC(=O)CC[C@@]43C)[C@@H]1CC[C@@H]2O [Testosterone, 17β-hydroxy-4-androsten-3-one, reference compound] | – | – | – | – | 41 | – | 47 | –
C[C@]12CC[C@H]3[C@@H](CCC4=CC(=O)CC[C@@]43C)[C@@H]1[C@@H](O)C[C@@H]2O [15α-hydroxytestosterone, 15α,17β-dihydroxy-4-androsten-3-one] | 1820 | 0.05 | 2 to 3 orders of magnitude less affinity | 560 | 28 | 148 | 40 | do not bind human SHBG

Reference: patent US7943602B2 (Pantarhei Bioscience B.V., priority 2002, dated 2011)
